Data reported in the supplement of paper PMC10307832.

How the values were obtained:
Assay in all cases: relative viability (nuclei count vs DMSO), 5 days (fraction); higher = more cells survive
[1] = tested on: LOU-NH91
Outline: (§1)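 Values are medians from duplicate plates. Each reflects relative viability, defined as the nuclei count of treated wells over that of vehicle wells. Lung cancer cell lines in 1536-well plates were pin-tool dosed one day after seeding with one drug alone or with a fixed anchor-drug dose plus five library-drug doses (not always all listed) in √10 steps, then fixed, stained and imaged at 4× after 5 days.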

[2] = tested on: NCI-H1437
Outline: as §1

[3] = tested on: NCI-H2085
Outline: as §1

[4] = tested on: NCI-H647
Outline: as §1

[5] = tested on: NCI-H1648
Outline: as §1

[6] = tested on: HCC-827
Outline: as §1

[7] = tested on: LU99A
Outline: as §1

[8] = tested on: EPLC-272H
Outline: as §1

[9] = tested on: SW 900
Outline: as §1

[10] = tested on: NCI-H1734
Outline: as §1

[11] = tested on: EMC-BAC-2
Outline: as §1

[12] = tested on: LK-2
Outline: as §1

[13] = tested on: NCI-H1792
Outline: as §1

[14] = tested on: NCI-H358
Outline: as §1

[15] = tested on: NCI-H522
Outline: as §1

[16] = tested on: EKVX
Outline: as §1

[17] = tested on: NCI-H650
Outline: as §1

[18] = tested on: BEN
Outline: as §1

[19] = tested on: HCC-78
Outline: as §1

[20] = tested on: NCI-H2023
Outline: as §1

[21] = tested on: COR-L 105
Outline: as §1

[22] = tested on: SK-LU-1
Outline: as §1

[23] = tested on: UMC-11
Outline: as §1

[24] = tested on: NCI-H1650
Outline: as §1

`Oc1nc(-c2ccc(C(F)(F)F)cc2)nc2c1CSCC2` [XAV939] + NC(=O)Nc1cc(-c2cccc(F)c2)sc1C(=O)N[C@H]1CCCNC1 [AZD7762] (partner 0.2 µM) was tested, and the relative viability ([1]; first compound 0.08 µM) was 0.762, the relative viability ([1]; first compound 0.253 µM) was 0.681 and the relative viability ([1]; first compound 0.8 µM) was 0.687. For the same compound, the relative viability ([1]; first compound 2.53 µM) was 0.692, the relative viability ([2]; first compound 0.08 µM) was 1.17 and the relative viability ([2]; first compound 0.253 µM) was 1.07. It also gave a relative viability ([2]; first compound 0.8 µM) of 1.1, a relative viability ([2]; first compound 2.53 µM) of 1.02 and a relative viability ([3]; first compound 0.08 µM) of 1.07. It also gave a relative viability ([3]; first compound 0.253 µM) of 0.876, a relative viability ([3]; first compound 0.8 µM) of 0.896 and a relative viability ([3]; first compound 2.53 µM) of 0.881. The relative viability ([4]; first compound 0.08 µM) was 0.489, the relative viability ([4]; first compound 0.253 µM) was 0.351 and the relative viability ([4]; first compound 0.8 µM) was 0.319. For the same compound, the relative viability ([4]; first compound 2.53 µM) was 0.412, the relative viability ([5]; first compound 0.253 µM) was 0.501 and the relative viability ([5]; first compound 0.8 µM) was 0.699. For the same compound, the relative viability ([5]; first compound 2.53 µM) was 0.598, the relative viability ([6]; first compound 0.08 µM) was 0.228 and the relative viability ([6]; first compound 0.253 µM) was 0.195. It also gave a relative viability ([6]; first compound 0.8 µM) of 0.213, a relative viability ([6]; first compound 2.53 µM) of 0.177 and a relative viability ([7]; first compound 0.08 µM) of 0.495. For the same compound, the relative viability ([7]; first compound 0.253 µM) was 0.394, the relative viability ([7]; first compound 0.8 µM) was 0.339 and the relative viability ([7]; first compound 2.53 µM) was 0.32. The relative viability ([8]; first compound 0.08 µM) was 0.229, the relative viability ([8]; first compound 0.253 µM) was 0.18 and the relative viability ([8]; first compound 0.8 µM) was 0.193. The relative viability ([8]; first compound 2.53 µM) was 0.0888, the relative viability ([9]; first compound 0.253 µM) was 0.616 and the relative viability ([9]; first compound 0.8 µM) was 0.599. The relative viability ([9]; first compound 2.53 µM) was 0.501, the relative viability ([10]; first compound 0.08 µM) was 0.617 and the relative viability ([10]; first compound 0.253 µM) was 0.515. It also gave a relative viability ([10]; first compound 0.8 µM) of 0.59, a relative viability ([10]; first compound 2.53 µM) of 0.51 and a relative viability ([11]; first compound 0.08 µM) of 1.1. The relative viability ([11]; first compound 0.253 µM) was 1.04, the relative viability ([11]; first compound 0.8 µM) was 0.95 and the relative viability ([11]; first compound 2.53 µM) was 0.878. It also gave a relative viability ([12]; first compound 0.08 µM) of 0.375, a relative viability ([12]; first compound 0.253 µM) of 0.429 and a relative viability ([12]; first compound 0.8 µM) of 0.344. The relative viability ([12]; first compound 2.53 µM) was 0.238, the relative viability ([13]; first compound 0.08 µM) was 0.823 and the relative viability ([13]; first compound 0.253 µM) was 0.595. For the same compound, the relative viability ([13]; first compound 0.8 µM) was 0.636, the relative viability ([13]; first compound 2.53 µM) was 0.591 and the relative viability ([14]; first compound 0.08 µM) was 0.476. For the same compound, the relative viability ([14]; first compound 0.253 µM) was 0.438, the relative viability ([14]; first compound 0.8 µM) was 0.344 and the relative viability ([14]; first compound 2.53 µM) was 0.448. For the same compound, the relative viability ([15]; first compound 0.08 µM) was 0.914, the relative viability ([15]; first compound 0.253 µM) was 0.797 and the relative viability ([15]; first compound 0.8 µM) was 0.825. It also gave a relative viability ([15]; first compound 2.53 µM) of 0.819, a relative viability ([16]; first compound 0.08 µM) of 0.685 and a relative viability ([16]; first compound 0.253 µM) of 0.646. For the same compound, the relative viability ([16]; first compound 0.8 µM) was 0.362, the relative viability ([16]; first compound 2.53 µM) was 0.56 and the relative viability ([17]; first compound 0.08 µM) was 1.04. For the same compound, the relative viability ([17]; first compound 0.253 µM) was 0.809, the relative viability ([17]; first compound 0.8 µM) was 1.02 and the relative viability ([17]; first compound 2.53 µM) was 0.773. For the same compound, the relative viability ([18]; first compound 0.08 µM) was 0.629, the relative viability ([18]; first compound 0.253 µM) was 0.651 and the relative viability ([18]; first compound 0.8 µM) was 0.619. For the same compound, the relative viability ([18]; first compound 2.53 µM) was 0.597, the relative viability ([19]; first compound 0.08 µM) was 0.595 and the relative viability ([19]; first compound 0.253 µM) was 0.514. It also gave a relative viability ([19]; first compound 0.8 µM) of 0.648 and a relative viability ([19]; first compound 2.53 µM) of 0.527.

Compound `Oc1nc(-c2ccc(C(F)(F)F)cc2)nc2c1CSCC2` [XAV939] + O=C(CCCCCCC(=O)Nc1ccccc1)NO [Vorinostat] (partner 1 µM) has a relative viability ([1]; first compound 0.08 µM) of 0.952, a relative viability ([1]; first compound 0.253 µM) of 0.813 and a relative viability ([1]; first compound 0.8 µM) of 0.88. It also gave a relative viability ([1]; first compound 2.53 µM) of 0.937, a relative viability ([20]; first compound 0.08 µM) of 0.795 and a relative viability ([20]; first compound 0.253 µM) of 0.552. For the same compound, the relative viability ([20]; first compound 0.8 µM) was 0.574, the relative viability ([20]; first compound 2.53 µM) was 0.461 and the relative viability ([2]; first compound 0.08 µM) was 0.834. It also gave a relative viability ([2]; first compound 0.253 µM) of 0.649, a relative viability ([2]; first compound 0.8 µM) of 0.62 and a relative viability ([2]; first compound 2.53 µM) of 0.477. The relative viability ([3]; first compound 0.08 µM) was 0.741, the relative viability ([3]; first compound 0.253 µM) was 0.736 and the relative viability ([3]; first compound 0.8 µM) was 0.789. It also gave a relative viability ([3]; first compound 2.53 µM) of 0.716, a relative viability ([4]; first compound 0.08 µM) of 0.581 and a relative viability ([4]; first compound 0.253 µM) of 0.545. It also gave a relative viability ([4]; first compound 0.8 µM) of 0.496, a relative viability ([4]; first compound 2.53 µM) of 0.207 and a relative viability ([5]; first compound 0.253 µM) of 0.522. It also gave a relative viability ([5]; first compound 0.8 µM) of 0.315, a relative viability ([5]; first compound 2.53 µM) of 0.285 and a relative viability ([6]; first compound 0.08 µM) of 0.872. For the same compound, the relative viability ([6]; first compound 0.253 µM) was 0.867, the relative viability ([6]; first compound 0.8 µM) was 0.803 and the relative viability ([6]; first compound 2.53 µM) was 0.686. It also gave a relative viability ([7]; first compound 0.08 µM) of 0.454, a relative viability ([7]; first compound 0.253 µM) of 0.598 and a relative viability ([7]; first compound 0.8 µM) of 0.507. The relative viability ([7]; first compound 2.53 µM) was 0.43, the relative viability ([8]; first compound 0.08 µM) was 0.369 and the relative viability ([8]; first compound 0.253 µM) was 0.339. It also gave a relative viability ([8]; first compound 0.8 µM) of 0.746, a relative viability ([8]; first compound 2.53 µM) of 0.324 and a relative viability ([9]; first compound 0.253 µM) of 0.528. The relative viability ([9]; first compound 0.8 µM) was 0.494, the relative viability ([9]; first compound 2.53 µM) was 0.373 and the relative viability ([10]; first compound 0.08 µM) was 0.98. The relative viability ([10]; first compound 0.253 µM) was 0.835, the relative viability ([10]; first compound 0.8 µM) was 0.757 and the relative viability ([10]; first compound 2.53 µM) was 0.803. The relative viability ([11]; first compound 0.08 µM) was 0.175, the relative viability ([11]; first compound 0.253 µM) was 0.447 and the relative viability ([11]; first compound 0.8 µM) was 0.379. The relative viability ([11]; first compound 2.53 µM) was 0.289, the relative viability ([12]; first compound 0.08 µM) was 0.371 and the relative viability ([12]; first compound 0.253 µM) was 0.325. For the same compound, the relative viability ([12]; first compound 0.8 µM) was 0.251, the relative viability ([12]; first compound 2.53 µM) was 0.24 and the relative viability ([21]; first compound 0.08 µM) was 0.85. The relative viability ([21]; first compound 0.253 µM) was 0.659, the relative viability ([21]; first compound 0.8 µM) was 0.719 and the relative viability ([21]; first compound 2.53 µM) was 0.65. It also gave a relative viability ([22]; first compound 0.08 µM) of 0.872, a relative viability ([22]; first compound 0.253 µM) of 0.755 and a relative viability ([22]; first compound 0.8 µM) of 0.892. The relative viability ([22]; first compound 2.53 µM) was 0.87, the relative viability ([14]; first compound 0.08 µM) was 0.796 and the relative viability ([14]; first compound 0.253 µM) was 0.49. For the same compound, the relative viability ([14]; first compound 0.8 µM) was 0.658, the relative viability ([14]; first compound 2.53 µM) was 0.565 and the relative viability ([15]; first compound 0.08 µM) was 1.17. It also gave a relative viability ([15]; first compound 0.253 µM) of 0.851, a relative viability ([15]; first compound 0.8 µM) of 0.718 and a relative viability ([15]; first compound 2.53 µM) of 0.846. The relative viability ([16]; first compound 0.08 µM) was 0.816, the relative viability ([16]; first compound 0.8 µM) was 0.678 and the relative viability ([16]; first compound 2.53 µM) was 0.423. The relative viability ([17]; first compound 0.08 µM) was 0.461, the relative viability ([17]; first compound 0.253 µM) was 0.345 and the relative viability ([17]; first compound 0.8 µM) was 0.506. For the same compound, the relative viability ([17]; first compound 2.53 µM) was 0.368, the relative viability ([23]; first compound 0.08 µM) was 0.364 and the relative viability ([23]; first compound 0.253 µM) was 0.267. The relative viability ([23]; first compound 0.8 µM) was 0.305, the relative viability ([23]; first compound 2.53 µM) was 0.274 and the relative viability ([18]; first compound 0.08 µM) was 0.556. It also gave a relative viability ([18]; first compound 0.253 µM) of 0.587, a relative viability ([18]; first compound 0.8 µM) of 0.514 and a relative viability ([18]; first compound 2.53 µM) of 0.418. For the same compound, the relative viability ([19]; first compound 0.08 µM) was 0.526, the relative viability ([19]; first compound 0.253 µM) was 0.453 and the relative viability ([19]; first compound 0.8 µM) was 0.443. It also gave a relative viability ([19]; first compound 2.53 µM) of 0.415, a relative viability ([24]; first compound 0.08 µM) of 0.909 and a relative viability ([24]; first compound 0.253 µM) of 0.524. For the same compound, the relative viability ([24]; first compound 0.8 µM) was 0.391 and the relative viability ([24]; first compound 2.53 µM) was 0.525.
